Laboratory results: publication PMC9028714 (Journal of Personalized Medicine, 2022)

Columns and labels:
[1] = Apixaban and rivaroxaban capillary blood concentrations (DBS, LC-MS/MS) in hospitalized patients; format: in vivo, human; conditions: concentrations normalized by the dosing regimen
Description: Comedications were systematically screened to record patients taking CYP3A4/5 and/or P-gp inhibitors and/or inducers using the Lexicomp drug interaction analysis tool and the Geneva Table of CYP substrates, inhibitors, and inducers. Adequacy of dosage was assessed according to the SmPC criteria (indication, age, CrCl, and weight).
The DBS concentrations were determined using a validated LC-MS/MS method.
After agitation during 10 min, 10 μL of the supernatant was injected into the LC-MS/MS system. Separation was performed with a Kinetex® C18 column (50 × 2.1 mm, 2.6 µm) from Phenomenex (Brechbühler, Schlieren, Switzerland) under gradient conditions. The mobile phase was composed of formic acid 0.1% in water and in acetonitrile. The total run time was 7 min. Detection of analytes was obtained in positive mode using multiple reaction monitoring (MRM). Instrument parameters were as follows: curtain gas = 40 psi, collision gas = high, IonSpray voltage = […], temperature = 550 °C, ion source gas 1 = 60 psi, ion source gas 2 = 60 psi.

[2] = Multivariable linear regression: genotype of CYP3A and P-gp vs AUC0–6h or C2h of apixaban and rivaroxaban; format: in vivo, human; conditions: for observed variability of AUC0–6h explained by the model: Table 4; for C2h, β (CI95%): Age 65–74 years / C2h, β (CI95%): Age 75–84 years / C2h, β (CI95%): Age >85 years: reference category <65 years; for C2h, β (CI95%): Gender, Female: reference category Male; for C2h, β (CI95%): Genotype ABCB1 1236C>T, Heterozygous for mutation / C2h, β (CI95%): Genotype ABCB1 1236C>T, Homozygous for mutation / C2h, β (CI95%): Genotype ABCB1 2677G>T, Heterozygous for mutation / C2h, β (CI95%): Genotype ABCB1 2677G>T, Homozygous for mutation / C2h, β (CI95%): Genotype ABCB1 3435C>T, Heterozygous for mutation / C2h, β (CI95%): Genotype ABCB1 3435C>T, Homozygous for mutation: reference category No mutation
Description: Genotyping of selected CYP3A4/5 and ABCB1 polymorphisms was carried out on QuantStudio^TM 12K Flex Real-Time (RT) PCR System with TaqMan® OpenArray^TM genotyping assays and TaqMan® MGB Probe Validated Single Nucleotide Polymorphism (SNP) Genotyping Assays (Applied Biosystems, Thermo Fisher Scientific, Waltham, MA, USA), respectively. These methods were previously described in detail in the literature. […] All SNPs of CYP3A4/5 integrated in the TaqMan® OpenArray^TM PGx Express Panel (Thermo Fisher Scientific, Waltham, MA, USA) were considered and are listed in Supplementary Table S1. Finally, raw genotyping data were processed with the TaqMan® Genotyper software (Thermo Fisher Scientific, Waltham, MA, USA) according to the manufacturer’s protocol.
AlleleTyper™ Software and translational tables (Thermo Fisher Scientific and PharmGKB, Stanford, CA, USA) were used to translate genetic pattern information from genotyping (SNPs) to pharmacogenomic gene-level star (*) nomenclature. Allele and genotype frequencies were determined, and Hardy–Weinberg equilibrium (HWE) was tested. […] The CYP3A activity predicted from the genotype combines the effects of CYP3A4 and CYP3A5 SNPs on enzyme activities, as listed in the PharmVar and PharmGKB databases. Patients were classified into poor metabolizer (PM), intermediate metabolizer (IM), normal metabolizer (NM), and ultra-rapid metabolizer (UM) according to the classification described by Andreu et al..
Missing data were excluded from the analysis.

CYP3A = tested on: CYP3A; set-up: method as in PMID 32157630; conditions: cited from earlier work
CYP2J2 = tested on: CYP2J2; set-up: method as in PMID 32157630; conditions: cited from earlier work
[3] = set-up: method as in PMID 33808739, PMID 30223963; conditions: cited from earlier work
[4] = Multivariable linear regression: phenotypic activity of CYP3A and P-gp vs AUC0–6h or C2h of apixaban and rivaroxaban; conditions: for observed variability of AUC0–6h predicted by the model: Table 3; for C2h, β (CI95%): Age 65–74 years / C2h, β (CI95%): Age 75–84 years / C2h, β (CI95%): Age >85 years: reference category <65 years; for C2h, β (CI95%): Gender, Female: reference category Male;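 for all read-outs here: outcome C2h is the drug concentration 2 h post-dose, with regression coefficient errors from a sandwich estimator after a Breusch–Pagan heteroscedasticity check and missing data excluded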
Description: Dependent variables (outcomes) for both drugs were defined as being the values of AUC0–6h and concentration 2 h after drug administration (C2h). […] The Breusch–Pagan test was used to detect a potential heteroscedasticity issue, and consistent standard errors of the regression coefficients were assessed with a sandwich estimator. […] In addition, association between dependent variables and predicted activity of CYP3A and P-gp from genotype were also adjusted for a pre-specified set of potential confounding factors (gender, CrCl, BMI, age, dose). Spearman’s correlation was used to assess the concordance between genotype and phenotype of CYP3A and P-gp. Missing data were excluded from the analysis.

CYP2J2 and CYP1A2 = tested on: CYP2J2 and CYP1A2; set-up: method as in PMID 32157630; conditions: cited from earlier work
[5] = genotype model, Table S4, reference category 10 mg od
[6] = genotype model, Table S4, reference category IM
[7] = phenotype model, Table S3, reference category 10 mg od
[8] = genotype model, Table S4, reference category 2.5 mg bid
[9] = phenotype model, Table S3, reference category 2.5 mg bid

Compound | inter-individual CV of blood concentrations ([1]; administered bid) [%] | observed variability of AUC0–6h explained by the model [2] | C2h, β (CI95%): ALAT, per unit ([2]; genotype model, Table S4) | C2h, β (CI95%): CrCl, per unit ([2]; genotype model, Table S4) | C2h, β (CI95%): Intercept ([2]; genotype model, Table S4) | C2h, β (CI95%): Age 65–74 years ([2]; genotype model, Table S4) | C2h, β (CI95%): Age 75–84 years ([2]; genotype model, Table S4) | C2h, β (CI95%): Age >85 years ([2]; genotype model, Table S4) | C2h, β (CI95%): Predicted phenotype from genotype CYP3A, PM [2, 6] | C2h, β (CI95%): Gender, Female ([2]; genotype model, Table S4) | C2h, β (CI95%): Genotype ABCB1 1236C>T, Heterozygous for mutation ([2]; genotype model, Table S4) | C2h, β (CI95%): Genotype ABCB1 1236C>T, Homozygous for mutation ([2]; genotype model, Table S4) | C2h, β (CI95%): Genotype ABCB1 2677G>T, Heterozygous for mutation ([2]; genotype model, Table S4) | C2h, β (CI95%): Genotype ABCB1 2677G>T, Homozygous for mutation ([2]; genotype model, Table S4) | C2h, β (CI95%): Genotype ABCB1 3435C>T, Heterozygous for mutation ([2]; genotype model, Table S4) | C2h, β (CI95%): Genotype ABCB1 3435C>T, Homozygous for mutation ([2]; genotype model, Table S4) | share of metabolism CYP3A is responsible for (CYP3A) [%] | excreted by the kidney [3] | observed variability of AUC0–6h predicted by the model ([4]; phenotype model) [%] | C2h, β (CI95%): ALAT, per unit ([4]; phenotype model, Table S3) | also measured
O=C(NC[C@H]1CN(c2ccc(N3CCOCC3=O)cc2)C(=O)O1)c1ccc(Cl)s1 [Rivaroxaban] | 41.5 | ~18% | 0.08 (−0.06 to 0.22) | −0.14 (−0.61 to 0.32) | −10.99 (−88.50 to 66.51) | 24.56 (8.41 to 40.71) | 25.66 (−1.56 to 52.88) | 19.86 (−9.35 to 49.08) | 24.72 (−8.3 to 57.73) | 2.56 (−12.47 to 17.59) | −16.43 (−46.63 to 13.77) | −1.63 (−39.30 to 36.03) | 23.36 (−8.85 to 55.56) | 16.54 (−19.70 to 52.77) | −8.53 (−32.11 to 15.04) | −12.17 (−32.48 to 8.14) | 18 | 66% | 27 | 0.05 (−0.14 to 0.23) | inter-individual CV of blood concentrations ([1]; administered od): 51.8%; C2h, β (CI95%): Weight, per kg ([2]; genotype model, Table S4): 0.46 (0.04 to 0.88); C2h, β (CI95%): Dose 15 mg bid [2, 5]: 60.99 (29.95 to 92.04); C2h, β (CI95%): Dose 15 mg od [2, 5]: 29.53 (−2.56 to 61.63); C2h, β (CI95%): Dose 20 mg od [2, 5]: 57.40 (22.52 to 92.28); C2h, β (CI95%): Predicted phenotype from genotype CYP3A, NM [2, 6]: 20.74 (1.20 to 40.28); contribution of CYP2J2 to total clearance (CYP2J2): 14%; C2h, β (CI95%): CrCl, per unit ([4]; phenotype model, Table S3): −0.017(−0.49 to 0.34); C2h, β (CI95%): Intercept ([4]; phenotype model, Table S3): −77.74 (−161.1 to 5.63); C2h, β (CI95%): MRmidazolam, per log10 ([4]; phenotype model, Table S3): −8.35 (−30.17 to 13.47); C2h, β (CI95%): Weight, per kg ([4]; phenotype model, Table S3): 0.23 (−0.18 to 0.63); C2h, β (CI95%): Dose 15 mg bid [4, 7]: 41.5 (0.24 to 82.75); C2h, β (CI95%): Dose 15 mg od [4, 7]: 18.95 (−21.77 to 59.66); C2h, β (CI95%): Dose 20 mg od [4, 7]: 39.98 (−4.47 to 84.44); C2h, β (CI95%): Age 65–74 years ([4]; phenotype model, Table S3): 15.15 (−0.06 to 30.37); C2h, β (CI95%): Age 75–84 years ([4]; phenotype model, Table S3): 10.55 (−12.65 to 33.75); C2h, β (CI95%): Age >85 years ([4]; phenotype model, Table S3): 7.97 (−15.72 to 31.67); C2h, β (CI95%): Gender, Female ([4]; phenotype model, Table S3): 1.91 (−13.03 to 16.84)
COc1ccc(-n2nc(C(N)=O)c3c2C(=O)N(c2ccc(N4CCCCC4=O)cc2)CC3)cc1 [Apixaban] | 47.7 | approximately 40% | 0.07 (−0.17 to 0.32) | −0.48 (−0.75 to −0.21) | 80.68 (42.43 to 118.93) | 5.10 (−15.52 to 25.71) | 9.29 (−10.54 to 29.12) | 14.31 (−10.69 to 39.31) | −18.61 (−36.00 to −1.21) | 5.44 (−5.98 to 16.87) | −1.26 (−23.09 to 20.57) | −9.35 (−36.76 to 18.06) | 8.08 (−14.86 to 31.01) | 9.94 (−17.81 to 37.69) | −7.52 (−24.64 to 9.60) | −2.70 (−18.04 to 12.65) | 15 | 25–30% | 47 | 0.06 (−0.13 to 0.25) | C2h, β (CI95%): Dose 5 mg bid [2, 8]: 51.17 (37.82 to 64.51); C2h, β (CI95%): Dose 10 mg bid [2, 8]: 113.17 (81.73 to 145.52); contribution of CYP2J2 and CYP1A2 together to metabolism (CYP2J2 and CYP1A2): 6%; decrease in CrCl with an effect comparable to P-gp phenoconversion NM to PM ([4]; according to the AUC0–6h model): 37.6 mL/min/1.73 m^2; C2h, β (CI95%): CrCl, per unit ([4]; phenotype model, Table S3): −0.40 (−0.67 to −0.13); C2h, β (CI95%): Intercept ([4]; phenotype model, Table S3): −0.46 (−51.98 to 51.05); C2h, β (CI95%): MRmidazolam, per log10 ([4]; phenotype model, Table S3): 6.07 (−8.08 to 20.22); C2h, β (CI95%): Weight, per kg ([4]; phenotype model, Table S3): −0.02 (−0.37 to 0.33); C2h, β (CI95%): Dose 5 mg bid [4, 9]: 51.97 (41.16 to 62.78); C2h, β (CI95%): Dose 10 mg bid [4, 9]: 116.28 (80.44 to 152.12); C2h, β (CI95%): Age 65–74 years ([4]; phenotype model, Table S3): 8.61 (−10.00 to 27.23); C2h, β (CI95%): Age 75–84 years ([4]; phenotype model, Table S3): 13.69 (−5.59 to 32.97); C2h, β (CI95%): Age >85 years ([4]; phenotype model, Table S3): 17.73 (−3.37 to 38.82); C2h, β (CI95%): Gender, Female ([4]; phenotype model, Table S3): 4.07 (−5.94 to 14.08)
